# Experimental data published in patent US20240374626A1, “METHODS OF ENHANCING MILK PRODUCTION IN LACTATING MAMMALIAN SUBJECTS” (priority 2023, published 2024).
# Test system: Csn2
# Experiment: Contralateral intraductal injection: Csn2 expression in MGs by RT-qPCR
# Format: in vivo, mouse
# Procedure: Nulliparous analysis was performed using adult (10-12-week-old) female mice. For timed pregnancies and lactation analysis, CD-1 pregnant adult females were obtained from Charles Rivers. Embryos were examined at the time of mammary gland harvesting to confirm pregnancy state. […] Plugged mice were considered to be PD0.5 on the day of the observed plug. All females used in this study were age matched.
# Mice were anesthetized with isoflurane (VetOne, 501017) Prior to intraductal injections, hair was removed from around the nipples using Nair hair remover. Injections into the duct of the nipple were performed with 33 G needles (Hamilton, 7803-05) and a volume of 40 μl per gland. Right inguinal, abdominal and thoracic glands were injected with doxorubicin (1.5 μg per gland, Cayman Chemical, 15007), nucleosides (40 μl per gland, Millipore-Sigma, ES-008-D) or Mk-1775 (50 μg per gland, Cayman Chemical, 21266), and left glands were injected with PBS or DMSO (Thermo Scientific, BP231) diluted in PBS.
# For RNA isolation from FACS purified populations, mammary gland cell suspensions were blocked using Mouse BD Fc Block™ (BD Biosciences) for 10 min. Cells were subsequently resuspended on 1×PBS at a density of 10^7 cells/ml and stained with the following antibodies for 30 min on ice: anti-CD24 PE (Stem Cell Technologies, 60099PE.1), anti-CD29 PE-Cy7 (BioLegend, 102222), anti-CD45-APC (BioLegend,105826), Ter119-APC (BD Biosciences, 561033), CD31-ACP (BD Biosciences, 551262). Propidium iodide at a final concentration of 0.5 μg/ml was used for the discrimination of dead cells. Stromal, basal and luminal mammary populations were sorted using a BD FACS Aria II Cell Sorter. […] Total RNA quality was analyzed by agarose gel electrophoresis and quantified using an ND-1000 spectrophotometer (NanoDrop). cDNA was prepared from 500-1000 ng of total RNA using iScript cDNA synthesis kit (Bio-Rad, 1708841). Quantitative RT-qPCR was performed in triplicates using SsoAdvanced Universal SYBR Green Supermix, (Bio-Rad, 1725272). […]
SMILES,"milk production as Csn2 expression, RT-qPCR (doxorubicin IDI at PD12.5 vs contralateral DMSO, PD17.5 MGs)","Csn2 expression, RT-qPCR (Mk-1775 IDI at PD16.5 vs contralateral DMSO, LD2 or LD5 MGs)"
COc1cccc2c1C(=O)c1c(O)c3c(c(O)c1C2=O)C[C@@](O)(C(=O)CO)C[C@@H]3O[C@H]1C[C@H](N)[C@H](O)[C@H](C)O1 [doxorubicin],increase,–
C=CCn1c(=O)c2cnc(Nc3ccc(N4CCN(C)CC4)cc3)nc2n1-c1cccc(C(C)(C)O)n1 [Mk-1775],–,decrease
